Assay results reported in PubChem BioAssay (NCI).
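How tested: cells in 96-well plates exposed to compound for 48 hours at five concentrations. TGI is the concentration that stops growth completely.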

Assays:
Assay in all cases: inhibition of tumour cell growth, NCI panel, 48 h
EKVX NSCLC = test system: EKVX NSCLC
OVCAR-3 ovarian = test system: OVCAR-3 ovarian
IGROV1 ovarian = test system: IGROV1 ovarian
SN12C renal = test system: SN12C renal
CCRF-CEM leukemia = test system: CCRF-CEM leukemia
MDA-MB-435 = test system: MDA-MB-435
SF-295 CNS = test system: SF-295 CNS
HCC-2998 colon = test system: HCC-2998 colon
MOLT-4 leukemia = test system: MOLT-4 leukemia
SK-MEL-2 melanoma = test system: SK-MEL-2 melanoma
ACHN renal = test system: ACHN renal
SF-539 CNS = test system: SF-539 CNS
K-562 leukemia = test system: K-562 leukemia
PC-3 prostate = test system: PC-3 prostate
HOP-92 NSCLC = test system: HOP-92 NSCLC
HOP-62 NSCLC = test system: HOP-62 NSCLC
UACC-62 melanoma = test system: UACC-62 melanoma
NCI/ADR-RES ovarian = test system: NCI/ADR-RES ovarian
HT29 colon = test system: HT29 colon
TK-10 renal = test system: TK-10 renal
RPMI-8226 leukemia = test system: RPMI-8226 leukemia
SW-620 colon = test system: SW-620 colon
T-47D breast = test system: T-47D breast
BT-549 breast = test system: BT-549 breast
MDA-MB-231 breast = test system: MDA-MB-231 breast
OVCAR-4 ovarian = test system: OVCAR-4 ovarian
SNB-19 CNS = test system: SNB-19 CNS
U251 CNS = test system: U251 CNS
MDA-N = test system: MDA-N
HCT-15 colon = test system: HCT-15 colon
M14 melanoma = test system: M14 melanoma
HL-60(TB) leukemia = test system: HL-60(TB) leukemia
786-0 renal = test system: 786-0 renal
COLO 205 colon = test system: COLO 205 colon
OVCAR-8 ovarian = test system: OVCAR-8 ovarian
NCI-H23 lung = test system: NCI-H23 lung
NCI-H522 lung = test system: NCI-H522 lung
A498 renal = test system: A498 renal
LOX IMVI melanoma = test system: LOX IMVI melanoma
UO-31 renal = test system: UO-31 renal
A549 NSCLC = test system: A549 NSCLC
KM12 colon = test system: KM12 colon
SK-OV-3 ovarian = test system: SK-OV-3 ovarian
SNB-75 CNS = test system: SNB-75 CNS
CAKI-1 renal = test system: CAKI-1 renal
SK-MEL-28 melanoma = test system: SK-MEL-28 melanoma
MCF7 breast = test system: MCF7 breast
SK-MEL-5 melanoma = test system: SK-MEL-5 melanoma
UACC-257 melanoma = test system: UACC-257 melanoma
MALME-3M melanoma = test system: MALME-3M melanoma
OVCAR-5 ovarian = test system: OVCAR-5 ovarian
HCT-116 colon = test system: HCT-116 colon
NCI-H226 lung = test system: NCI-H226 lung

`C[C@H]1[C@H](N2CCCC2)O[Si](C(C)(C)C)(C(C)(C)C)[C@@H]1C` was tested, and the TGI (EKVX NSCLC) was over 100 µM, the TGI (OVCAR-3 ovarian) was over 100 µM and the TGI (IGROV1 ovarian) was over 100 µM. It also gave a TGI (SN12C renal) of over 100 µM, a TGI (CCRF-CEM leukemia) of over 100 µM and a TGI (MDA-MB-435) of over 100 µM. The TGI (SF-295 CNS) was over 100 µM, the TGI (HCC-2998 colon) was over 100 µM and the TGI (MOLT-4 leukemia) was over 100 µM. For the same compound, the TGI (SK-MEL-2 melanoma) was over 100 µM, the TGI (ACHN renal) was over 100 µM and the TGI (SF-539 CNS) was over 100 µM. For the same compound, the TGI (K-562 leukemia) was over 100 µM, the TGI (PC-3 prostate) was over 100 µM and the TGI (HOP-92 NSCLC) was 4.7 µM. For the same compound, the TGI (HOP-62 NSCLC) was over 100 µM, the TGI (UACC-62 melanoma) was over 100 µM and the TGI (NCI/ADR-RES ovarian) was over 100 µM. For the same compound, the TGI (HT29 colon) was over 100 µM, the TGI (TK-10 renal) was over 100 µM and the TGI (RPMI-8226 leukemia) was over 100 µM. For the same compound, the TGI (SW-620 colon) was over 100 µM, the TGI (T-47D breast) was over 100 µM and the TGI (BT-549 breast) was over 100 µM. The TGI (MDA-MB-231 breast) was over 100 µM, the TGI (OVCAR-4 ovarian) was over 100 µM and the TGI (SNB-19 CNS) was over 100 µM. It also gave a TGI (U251 CNS) of over 100 µM, a TGI (MDA-N) of over 100 µM and a TGI (HCT-15 colon) of over 100 µM. It also gave a TGI (M14 melanoma) of over 100 µM, a TGI (HL-60(TB) leukemia) of 48.5 µM and a TGI (786-0 renal) of over 100 µM. It also gave a TGI (COLO 205 colon) of over 100 µM, a TGI (OVCAR-8 ovarian) of over 100 µM and a TGI (NCI-H23 lung) of over 100 µM. For the same compound, the TGI (NCI-H522 lung) was over 100 µM, the TGI (A498 renal) was over 100 µM and the TGI (LOX IMVI melanoma) was over 100 µM. For the same compound, the TGI (UO-31 renal) was over 100 µM, the TGI (A549 NSCLC) was over 100 µM and the TGI (KM12 colon) was over 100 µM. It also gave a TGI (SK-OV-3 ovarian) of over 100 µM, a TGI (SNB-75 CNS) of over 100 µM and a TGI (CAKI-1 renal) of over 100 µM. For the same compound, the TGI (SK-MEL-28 melanoma) was over 100 µM, the TGI (MCF7 breast) was over 100 µM and the TGI (SK-MEL-5 melanoma) was over 100 µM. For the same compound, the TGI (UACC-257 melanoma) was over 100 µM, the TGI (MALME-3M melanoma) was over 100 µM and the TGI (OVCAR-5 ovarian) was over 100 µM. It also gave a TGI (HCT-116 colon) of over 100 µM and a TGI (NCI-H226 lung) of over 100 µM.
